Source: BindingDB's records for doi:10.1016/s0891-0618(03)00032-2 (University of Michigan, 2003)

Assays:
Mu-type opioid receptor = Mu-type opioid receptor (Rattus norvegicus, UniProt P33535)
[1] = biological target: Delta-type opioid receptor (Rattus norvegicus, UniProt P33533)
[2] = biological target: Kappa-type opioid receptor (Rattus norvegicus, UniProt P34975)
Nociceptin receptor = Nociceptin receptor (Rattus norvegicus, UniProt P35370)
Sequence of Nociceptin receptor (P35370 whole entry): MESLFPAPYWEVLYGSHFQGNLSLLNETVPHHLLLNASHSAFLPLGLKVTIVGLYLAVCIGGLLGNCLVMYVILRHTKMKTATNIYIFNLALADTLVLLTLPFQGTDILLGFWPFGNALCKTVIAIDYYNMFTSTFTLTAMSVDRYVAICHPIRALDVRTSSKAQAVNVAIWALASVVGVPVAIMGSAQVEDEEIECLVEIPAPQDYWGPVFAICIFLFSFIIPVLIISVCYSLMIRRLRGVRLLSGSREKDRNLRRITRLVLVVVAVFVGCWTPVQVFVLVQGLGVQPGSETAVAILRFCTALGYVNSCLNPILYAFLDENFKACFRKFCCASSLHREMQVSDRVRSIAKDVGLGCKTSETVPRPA

Sequence of Mu-type opioid receptor (P33535 whole entry): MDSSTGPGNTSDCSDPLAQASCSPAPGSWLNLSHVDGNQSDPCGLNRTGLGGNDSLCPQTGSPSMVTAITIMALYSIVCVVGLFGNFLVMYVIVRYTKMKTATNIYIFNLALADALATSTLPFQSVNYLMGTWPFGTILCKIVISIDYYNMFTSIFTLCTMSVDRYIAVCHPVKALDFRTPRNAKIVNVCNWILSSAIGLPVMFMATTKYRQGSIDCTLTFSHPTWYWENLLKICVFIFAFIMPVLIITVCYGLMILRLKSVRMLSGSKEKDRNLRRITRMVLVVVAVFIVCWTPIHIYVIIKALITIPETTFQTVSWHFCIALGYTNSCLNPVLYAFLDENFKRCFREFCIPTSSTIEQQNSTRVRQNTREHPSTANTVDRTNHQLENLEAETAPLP
Sequence of Delta-type opioid receptor (P33533 whole entry): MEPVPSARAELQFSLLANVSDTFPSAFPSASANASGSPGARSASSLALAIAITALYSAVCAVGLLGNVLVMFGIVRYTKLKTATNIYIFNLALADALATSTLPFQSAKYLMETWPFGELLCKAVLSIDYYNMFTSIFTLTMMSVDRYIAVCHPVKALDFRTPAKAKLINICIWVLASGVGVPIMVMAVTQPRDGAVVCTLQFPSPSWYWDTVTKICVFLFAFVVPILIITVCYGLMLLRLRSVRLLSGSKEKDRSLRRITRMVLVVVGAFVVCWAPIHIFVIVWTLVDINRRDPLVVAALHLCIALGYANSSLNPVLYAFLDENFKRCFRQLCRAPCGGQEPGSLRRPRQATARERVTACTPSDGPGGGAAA
Sequence of Kappa-type opioid receptor (P34975 whole entry): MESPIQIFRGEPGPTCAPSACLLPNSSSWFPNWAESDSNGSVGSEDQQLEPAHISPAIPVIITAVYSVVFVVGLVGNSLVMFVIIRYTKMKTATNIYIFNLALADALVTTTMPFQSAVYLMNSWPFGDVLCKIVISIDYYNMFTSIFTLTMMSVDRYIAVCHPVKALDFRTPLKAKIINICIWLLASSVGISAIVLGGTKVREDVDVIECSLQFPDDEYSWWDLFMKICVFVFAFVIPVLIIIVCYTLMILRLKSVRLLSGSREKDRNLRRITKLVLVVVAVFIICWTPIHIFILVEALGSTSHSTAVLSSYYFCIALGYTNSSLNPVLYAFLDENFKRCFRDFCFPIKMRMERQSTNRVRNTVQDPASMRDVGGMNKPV

| Compound | Ki (Mu-type opioid receptor) [µM] | Ki [1] [µM] | Ki [2] [µM] | Ki (Nociceptin receptor) [µM] |
| --- | --- | --- | --- | --- |
| CCC12CCN(CC3CC3)C(C(=O)c3ccc(O)cc31)C2C (centres undefined) [EKC] | 0.00193 | 0.00246 | 0.00212 |  |
| CC(C)C[C@H](NC(=O)[C@H](CCCCN)NC(=O)[C@H](CCCN=C(N)N)NC(=O)[C@H](C)NC(=O)[C@H](CO)NC(=O)[C@H](CCCCN)NC(=O)[C@H](CCCN=C(N)N)NC(=O)[C@H](C)NC(=O)CNC(=O)[C@@H](NC(=O)[C@H](Cc1ccccc1)NC(=O)CNC(=O)CNC(=O)[C@@H](N)Cc1ccccc1)[C@@H](C)O)C(=O)N[C@@H](C)C(=O)N[C@@H](CC(N)=O)C(=O)N[C@@H](CCC(N)=O)C(=O)O [OFQ 1-17] | > 10 | > 10 | > 10 |  |
| H-FSEFMRQYLVLSMQSSQ-OH [OFQ II 1-17] | > 10 | > 10 | > 10 | > 10 |
| H-FSEFMRQYLVLSMQSSQRRRTLHQNGNV-NH2 [NSC_0] | > 10 | > 10 | > 10 | > 10 |
